# Data: patent US20230293735A1, “OXINE-CONTAINING CELL RADIOLABELLING AGENTS” (priority 2020, published 2023)
# Legend:
# eosinophils = settings: ref. [31]; cited from earlier work
# [1] = Activity recovery from vial (gamma-counting of aliquots); type: physicochemical; settings: for added ^89Zr activity recoverable: formulation with 5% EtOH
# Method: FIG. 9. Recovery of ^89Zr-oxine complexes from the reaction vial over time. The figure compares formulations containing 8-hydroxyquinoline, HEPES and NaOH only (dots), and additional 5% EtOH (squares) or 1 mg/mL polysorbate 80 (diamonds). ^89Zr-oxalate was added to 100 µL of the formulation of the invention in a glass vial and left at room temperature for up to 1 week. 10 µL aliquots were removed from the glass vial immediately after addition (0 min) and after 15 min, 30 min, 1, 2, 24, 48, 72 and 168 h, then gamma-counted at the end of the experiment. The recovered activity is expressed as the activity in the aliquot at the indicated time as a percentage of the activity sampled immediately after addition of ^89Zr to the-formulation of the invention. Mean±SD, N=3.
# FIG. 10. Recovery of ^89Zr-oxine complexes from the reaction vial over time as a function of the amount of polysorbate 80. […] 10 µL aliquots were removed from the glass vial immediately after addition (0 min) and after 15 min, 30 min, 1, 2, 24, 48, 72 and 168 h, then gamma-counted at the end of the experiment. The recovered activity is expressed as the activity in the aliquot at the indicated time as a percentage of the activity sampled immediately after addition of ^89Zr to the formulation of the invention. […]
# The stability of the compositions described herein can be assessed, for example, in terms of their recovered activity. The recovered activity is expressed as the percentage of activity (i.e. radioactivity, as assessed by gamma-counting) in a sample at the time of measurement, relative to the activity sampled immediately after addition of the radioactive metal containing solution to the oxine formulation described herein. […]
# Activity recovery from vial: ^89Zr was added to 100 µL of the formulation. […] The aliquots were gamma-counted on day 7 after addition of ^89Zr. The percentage of activity recovered from the vial was determined as the counts in each sample divided by the counts in the reference sample.
# WBC = test: Viability of radiolabelled cells, Trypan Blue dye exclusion; type: cell-based, human
# Method: FIG. 16. WBC radiolabelling with ^89Zr-oxine and ^111In-oxine. Percentage of viable ^89Zr- and ^111n-labelled WBC after 4 h and 24 h, measured using the Trypan blue assay. Mean ± SD of n=6 per group, Student’s two-tailed paired t-test. ns: not significant (p≥0.05).
# Viability was assessed by microscopy using the Trypan Blue dye exclusion method. Cell viability after radiolabelling with ^89Zr-oxine was 99.4±0.3% immediately after labelling, 97.0±2.3% after 4 h and 92.6±4.8% after 24 h (FIG. 16).
# WBCs = test: In vitro chemotaxis assay of radiolabelled WBC towards fMLP; type: cell-based, human; settings: vs ^111In-oxine and unlabelled control cells
# Method: FIG. 17. Chemotaxis of radiolabelled WBC. Cells were incubated with ^89Zr-oxine, ^111In-oxine, or vehicle only. The chemotaxis index is the number of cells migrating towards 10 nM fMLP divided by the number of cells migrating towards vehicle, averaged from triplicates for each sample. Each point represents one donor. Bars represent the mean ± SD of n = 9, 10 and 10 individual samples. p≥0.05.
# The functionality of WBCs radiolabelled as in Example 8 was tested using an in vitro chemotaxis assay, where the number of WBCs migrating in response to the neutrophil chemoattractant N-formyl-Met-Leu-Phe (fMLP) was measured.
# After radiolabelling, red blood cells (RBCs) were removed from the cell pellets hypotonic lysis. Cells were resuspended in 4.5 mL cold H2O for 30 s, after which isotonicity was restored by addition of 0.5 mL 10x PBS. Lysed RBC were removed by centrifugation and the remaining WBC were resuspended in assay medium at 3.5×10^6 cells/mL. […] The top wells were emptied, the plate was centrifuged at 150 g for 5 min to detach the cells from the membrane and the cells in the bottom wells were counted using a haemocytometer. The chemotaxis index (CI) was calculated by dividing the number of WBC in the wells containing fMLP by the number of WBC in the wells containing medium only.
# WBC populations = test: Relative activity per cell in FACS-sorted WBC populations, gamma-counted; type: cell-based, human; settings: flow-assisted cell sorting
# Method: FIG. 18. Relative activity per cell of ^89Zr in WBC populations after labelling of mixed WBC with ^89Zr-oxine. Radiolabelled WBC were sorted by FACS and gamma-counted. Each point represents cells from an individual donor.
# To determine whether certain subtypes of WBC had preferential uptake of ^89Zr-oxine, radiolabelled WBC were stained with fluorescent monoclonal antibodies, automatically sorted and gamma-counted. ^89Zr-radiolabelled WBC were stained (15 min at 4° C.) with a combination of CD45-APC-Vio770 (#130-110-773), CD3-PE (REA613, #130-113-701), CD14-APC (#130-110-578), CD19-PE-Vio770 (REA675, #130-114-173) and CD16-FITC (REA423, #130-113-954) antibodies to sort samples into neutrophils, eosinophils, monocytes, T cells and B cells, or CD45-APC-Vio770, […] (REA175, #130-117-800) and CD41a-PE (REA386, #130-121-429) to sort red blood cells and platelets. Compensation settings were adjusted using beads (anti-REA MACS® Comp, #130-104-693). Samples were analysed and sorted on a FACSMelody instrument (BD Biosciences) equipped with blue (488 nm), yellow-green ([…]) and red (633 nm) lasers. For each cell type, a fixed number of events was collected, and the fractions were gamma-counted to determine the amount of activity per cell.
# Extracellular vesicles = test: Radiolabelling efficiency of extracellular vesicles; settings: EVs from B16-F10.GFP, MDA-MB-231.CD63-GFP, PANC1, 4T1 and 2D/3D MSC cultures
# Method: FIG. 23. Use of the kit formulation to radiolabel extracellular vesicles (EVs) for imaging purposes.
# Extracellular vesicles are isolated by any suitable method (e.g. by density gradient centrifugation). Extracellular vesicles (e.g. 1×10^10 to 1×10^11 vesicles) in 160 µL PBS were incubated with 20 µL ^89Zr-oxine or unchelated ^89Zr for 20 min at 37° C. with frequent shaking, followed by addition of 100 µL 1% deferoxamine in PBS to trap any unbound ^89Zr. Radiolabelled EVs were purified from unchelated radiotracer by size-exclusion chromatography (SEC) using cross-linked agarose resin (e.g. Sepharose CL-2B, GE Healthcare) in plastic columns. The reaction mixture was loaded onto the column followed by 200 µL PBS and eluted with 700-800 µL PBS. Radioactivity of the eluate and the column was measured using gamma counting to calculate labelling efficiency. The labelling efficiency of EVs obtained from B16-F10.GFP, MDA-MB-231.CD63-GFP, PANC1 and 4T1 cell lines and from 2D and 3D cultures of mesenchymal stem cells (MSC) B with ^89Zr-oxine ranged from 5.4 ± 3.2% for 2D-culture derived MSC-EVs to 27.6 ± 6.5% for 4T1 EVs (FIG. 23).
# Human WBCs = test: Radiolabel retention in radiolabelled WBC in autologous cell free plasma; type: cell-based; settings: p>0.05, n=10
# Method: Human WBCs from 10 healthy donors were radiolabelled with ^89Zr-oxine and ^111In-oxine as described in Example 8 and an intra-individual comparison of labelling with ^89Zr-oxine and ^111In-oxine was performed. Labelling efficiency was determined as described in Example 7. For radiolabel retention studies, radiolabelled WBC were suspended in autologous CFP (cell free plasma), in triplicate in a 24-well plate and incubated at 37° C. Cells were collected after 4 h or 24 h, diluted with PBS, centrifuged at 200 g for 10 min, and supernatants and pellets were measured in a dose calibrator to determine retention using the same formula as for labelling efficiency. The labelling efficiency of WBCs with ^89Zr-oxine was 48.7±6.3%, vs 89.1±9.5 (p<0.0001, n=10) for ^111In-oxine (FIG. 14). Cellular retention of ^89Zr was 91.4±1.4% after 4 h incubation in autologous CFP and 86.6±2.9% after 24 h (FIG. 15). […] The labelling of WBC with ^89Zr-oxine was reliable, consistently achieving 45-50% labelling efficiency with 160-480 million cells.
smiles,measurement,setting,value
C/C(=N\[O-])[C@@H](C)[N-]CC(C)(C)C[N-][C@H](C)/C(C)=N/O.[O]=[99Tc+3] (racemic) [^99mTc-HMPAO],preferential accumulation in leucocyte subtype,eosinophils,accumulated preferentially in eosinophils
c1cnc2c([O][89Zr]([O]c3cccc4cccnc34)([O]c3cccc4cccnc34)[O]c3cccc4cccnc34)cccc2c1 [^89Zr-oxine],added activity recoverable from the vial,"[1]; 1 M HEPES buffer (pH 7.9), no surfactant or organic solvent, glass vessel, 15 min after addition of ^89Zr",46%
same,added ^89Zr activity recoverable,[1]; after 1 h,46%
same,added ^89Zr activity recoverable,[1]; after 24 h,less than 6%
same,cell viability after radiolabelling,WBC; after 4 h,97.0±2.3%
same,cell viability after radiolabelling,WBC; after 24 h,92.6±4.8%
same,cell viability after radiolabelling,WBC; immediately after labelling,99.4±0.3%
same,chemotactic properties of labelled WBC,WBCs,retained their chemotactic properties
same,preferential uptake by leukocyte populations,WBC populations,no preferential uptake by any specific leukocyte population
same,uptake in RBCs and platelets,WBC populations,significant uptake
same,labelling efficiency of EVs compared to unchelated ^89Zr,Extracellular vesicles,higher labelling efficiency
"c1cnc2c([O][111In]([O]c3cccc4cccnc34)[O]c3cccc4cccnc34)cccc2c1 [^111In-oxine, reference compound]",radiolabelling agent retention compared with ^89Zr-oxine,Human WBCs,no significant differences
same,viability compared with ^89Zr-oxine,"WBC; p>0.05, n=6-10",no significant differences
